The source of these data is patent publication US5459131A, “Renin inhibitors” (American Cyanamid Company, priority 1991, dated 1995).

This assay has as its target T1, human kidney renin (Homo sapiens, UniProt P00797).
T1 construct: Human renin is prepared from human kidney; from tissue; host or cells: human kidney
T1 sequence (P00797 67-406): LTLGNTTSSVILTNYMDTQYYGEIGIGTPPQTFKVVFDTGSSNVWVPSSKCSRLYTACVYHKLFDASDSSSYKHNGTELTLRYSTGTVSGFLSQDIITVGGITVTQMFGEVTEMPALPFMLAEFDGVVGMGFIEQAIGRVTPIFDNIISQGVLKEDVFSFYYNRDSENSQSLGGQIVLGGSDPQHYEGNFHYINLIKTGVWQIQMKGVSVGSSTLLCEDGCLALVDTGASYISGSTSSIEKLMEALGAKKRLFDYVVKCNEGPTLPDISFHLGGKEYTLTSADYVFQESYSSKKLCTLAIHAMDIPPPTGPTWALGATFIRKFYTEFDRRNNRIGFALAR
Kind of assay: Radioimmunoassay screen for renin inhibitors (angiotensin I generation, then RIA quantitation). The class given is biochemical. To be noted: purified human plasma angiotensinogen substrate, maleate buffer pH 6.0, 1 hour at 37° C.; read-out: Renin Inhibition IC50 Molar Concentration. The method, then:
Radioimmunoassay Screen For Renin Inhibitors
The in vitro method for the screening of anti-renin compounds involves, first, angiotensin I generation, and second, the quantitation of the angiotensin I produced by radioimmunoassay.
The incubation medium consisted of 20 μl of purified human plasma angiotensinogen; (1) 10 μl of human kidney renin; (2) 5 μl of phenylmethylsulfonyl fluoride; 10 μl of disodium EDTA (10 mM); 10 μl of antirenin compound (5×10^-3 M, 5×10^-4 M, 5×10^-5 M) in dimethylformamide, or ethanol and a suitable amount of maleate buffer (77 mM, pH 6.0) to make a final volume of 500 μl . The reaction mixture is incubated for one hour at 37° C. and the enzymatic reaction is stopped by placing the tube in ice-cold water. The angiotensin I generated during the incubation is measured by a radioimmunoassay plasma renin activity kit (Clinical Assays, Inc.).
Radioimmunoassay Procedure
The incubation medium consisted of either 100 μl aliquots of the above reaction mixture or a standard amount of angiotensin I; 1000 μl of phosphate buffer (100 mM, pH 7.6) and 100 μl of (^125 I) angiotensin in a gamma-coat tube. After three hours of incubation at room temperature, the tubes are decanted, and the radioactivity of each tube is determined in a gamma counter. Duplicate determinations are performed for each incubation. The results are expressed in ng of angiotensin I generated per ml of generation medium per hour of incubation (ng/AI/ml/hr).
The results of this test on representative compounds of this invention appear in Table I, expressed as an IC50.
(1) The human plasma angiotensinogen derived from the blood of a person receiving oral contraceptive pills is purified by chromatography on a pepstatinaminohexyl-agarose column.
(2) Human renin is prepared from human kidney.

As to “[S-(R*,S*)]-1-cyclohexyl-2-[[2-[[1,4-dioxo-4-phenyl-2-(phenylmethyl)butyl]amino]-4-methyl-1-oxopentyl]amino]-4,7-epithio-1,2,4,5,6,7-hexadeoxy-L-arabino-Heptitol, (R and S)-S-oxide”, the IC50 was 8.3 nM.

For the substance “[S-(R*,S*)]-4,7-anhydro-1-cyclohexyl-1,2,5,6-tetradeoxy-2-[[4-methyl-2-[[4-[3-[(methylamino)sulfonyl]phenyl]-1,4-dioxo-2-(phenylmethyl)butyl]amino]-1-oxopentyl]amino]-L-arabino-Heptitol”, the IC50 turned out to be 2.4 nM.

Regarding “[S-(R*,S*)]-4,7-anhydro-1-cyclohexyl-1,2,5,6-tetradoxy-2-[[2-[[1,4-dioxo-4-phenyl-2-(phenylmethyl)butyl]amino]-4-methyl-1-oxopentyl]amino]-D-xylo-Heptitol”, the IC50 stood at 470 nM.

For the substance “[S-(R*,S*)]-1-cyclohexyl-1,2,4,5,6,7-hexadeoxy-2-[[2-[[1,4-dioxo-4-phenyl-2-(phenylmethyl)butyl]amino]-4-methyl-1-oxopentyl]amino]-4,7-epithio-L-arabino-Heptitol, [R (or S)]-S-oxide”, the IC50 came out at 12 nM.

Regarding “[S-(R*,S*)[-4,7-anhydro-2-[[2-[[4-(2-benzofuranyl)-1,4-dioxo-2-(phenylmethyl)butyl]amino]-3-(1H-imidazol-4-yl)-1-oxopropyl]amino]-1-cyclohexyl-1,2,5,6-tetradeosy-L-arabino-Heptitol”, the IC50 amounted to 1.5 nM.

On to “[S-(R*,R*)]4,7-anhydro-2-[[2-[[4-(2-benzofuranyl)-1,4-dioxo-2-(phenylmethyl)butyl]amino]-3-(1H-imidazol-4-yl)-1-oxopropyl]amino]-1-cyclohexyl-1,2,5,6-tetradeoxy-L-arabino-Heptitol”, for which the IC50 was determined as 42 nM.

For “[S-(R*,S*)]-4,7-anhydro-1-cyclohexyl-1,2,5,6-tetradeoxy-2-[[2-[[1,4-dioxo-2-(phenylmethyl)-4-(2-thienyl)butyl]amino]-4-methyl-1-oxo-pentyl]amino]-L-arabino-Heptitol”, the IC50 worked out at 0.08 nM.

As to “[S-(R*,R*)]-4,7-anhydro-1-cyclohexyl-1,2,5,6-tetradeoxy-2-[[4-methyl-2-[[4-[3-[(methylamino)sulfonyl]phenyl]-1,4-dioxo-2-(phenylmethyl)buyhl]amino]-1-oxopentyl]amino]-L-arabino-Heptitol”, the IC50 was 71 nM.
